In paper PMC11089506 (Journal of Medicinal Chemistry, 2024):
Where a name gives a salt, the structure may show the parent alone. Read-outs that look alike come from different tables or passages of the source.

Assays:
human 5-HT2CR = human 5-HT2CR (Homo sapiens, UniProt P28335); assay: Ca2+/Fluo-4 assay, agonist mode, stable 5-HT2CR-HEK293 cells; settings: for 5-HT2CR Rmax (%): % of the 5-HT Rmax; for 5-HT2CR Rmax ± S.E.M.: % of the 5-HT Rmax on the same 96-well plate
human 5-HT2AR = human 5-HT2AR (Homo sapiens, UniProt P28223); assay: Ca2+/Fluo-4 assay, agonist mode, stable 5-HT2AR-HEK293 cells; settings: for 5-HT2AR Rmax (%): % of the 5-HT Rmax; for 5-HT2AR Rmax ± S.E.M.: % of the 5-HT Rmax on the same 96-well plate; for fold drop in agonist potency (fold higher EC50) at 5-HT2AR: relative to (S)-11
Sequence of human 5-HT2AR (P28223 whole entry): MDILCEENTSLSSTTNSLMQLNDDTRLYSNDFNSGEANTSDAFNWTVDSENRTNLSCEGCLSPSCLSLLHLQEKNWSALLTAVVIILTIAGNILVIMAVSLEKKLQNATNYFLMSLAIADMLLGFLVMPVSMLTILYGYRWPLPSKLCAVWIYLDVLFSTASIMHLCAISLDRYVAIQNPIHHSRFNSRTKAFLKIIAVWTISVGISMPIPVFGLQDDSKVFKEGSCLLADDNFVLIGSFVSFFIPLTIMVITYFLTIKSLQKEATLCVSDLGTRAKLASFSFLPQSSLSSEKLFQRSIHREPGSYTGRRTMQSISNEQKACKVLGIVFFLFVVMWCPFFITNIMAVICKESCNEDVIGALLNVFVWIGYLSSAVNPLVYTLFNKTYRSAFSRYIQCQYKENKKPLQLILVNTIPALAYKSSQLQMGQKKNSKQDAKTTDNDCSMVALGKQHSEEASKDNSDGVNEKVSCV

[1] = read-out: 5-HT2CR EC50, Table 1, at least 3 independent experiments
[2] = read-out: 5-HT2AR EC50, Table 1, at least 3 independent experiments
[3] = read-out: 5-HT2AR EC50, Table 2, at least 3 independent experiments
[4] = 5-HT2CR EC50 (nM), Table 2, at least 3 independent experiments
[5] = read-out: 5-HT2CR EC50, Table S2
[6] = 5-HT2CR EC50 (nM), Table 1, at least 3 independent experiments
[7] = 5-HT2AR EC50 (nM), Table 1, at least 3 independent experiments

Sequence of human 5-HT2CR (P28335 33-458): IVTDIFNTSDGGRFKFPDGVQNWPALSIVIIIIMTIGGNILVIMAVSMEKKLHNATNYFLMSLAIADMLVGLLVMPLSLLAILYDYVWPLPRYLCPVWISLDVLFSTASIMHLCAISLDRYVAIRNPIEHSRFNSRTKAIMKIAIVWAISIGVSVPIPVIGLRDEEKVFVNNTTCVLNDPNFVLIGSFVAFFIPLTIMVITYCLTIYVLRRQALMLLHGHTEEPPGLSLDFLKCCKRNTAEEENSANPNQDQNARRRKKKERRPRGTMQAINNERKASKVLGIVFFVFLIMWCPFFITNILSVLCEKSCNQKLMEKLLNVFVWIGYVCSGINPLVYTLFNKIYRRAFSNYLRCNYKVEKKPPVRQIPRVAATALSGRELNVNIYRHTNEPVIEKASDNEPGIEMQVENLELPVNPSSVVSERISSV

Row | Structure (SMILES) | 5-HT2CR pEC50 ± S.E.M. (human 5-HT2CR; Table S2) | EC50 (human 5-HT2CR; [1]) | 5-HT2AR pEC50 ± S.E.M. (human 5-HT2AR; Table S2) | EC50 (human 5-HT2AR; [2]) | 5-HT2AR Rmax (%) (human 5-HT2AR; Table 2) | 5-HT2AR Rmax ± S.E.M. (human 5-HT2AR; Table S2) | other results
1 | COc1cc(C2CCCNC2)c(OC)cc1I (centres unmarked) [Compound 9dis, 3-(4-Iodo-2,5-dimethoxyphenyl)piperidine] | 5.55 ± 0.08 | 2800 nM | 6.58 ± 0.03 | 260 nM |  |  | 
2 | CCOc1cc(C(F)(F)F)c(OC)cc1C1CCCNC1.Cl (centres unmarked) [Compound 24eu, 3-(2-Ethoxy-5-methoxy-4-(trifluoromethyl)phenyl)piperidine Hydrochloride] |  |  | 7.42 ± 0.10 |  | 40% | 40 ± 3% | EC50 (human 5-HT2CR; 5-HT2CR EC50, Table S2): > 10000 nM; EC50 (human 5-HT2AR; [3]): 38 nM
3 | CCOc1cc(C(F)(F)F)c(OCC)cc1C1CCCNC1.Cl (centres unmarked) [Compound 26dis, 3-(2,5-Diethoxy-4-(trifluoromethyl)phenyl)piperidine Hydrochloride] |  |  | 5.52 ± 0.06 |  | 69% | 69 ± 4% | EC50 (human 5-HT2CR; read-out: 5-HT2CR EC50, Table 2, at least 3 independent experiments): > 10000 nM; EC50 (human 5-HT2AR; [3]): 3000 nM
4 | Cl.FC(F)(F)c1ccc(C2CCCNC2)cc1 (centres unmarked) [Compound 21, 3-(4-(Trifluoromethyl)phenyl)piperidine Hydrochloride] |  |  |  |  |  |  | agonist activity at 5-HT2CR (in words) (human 5-HT2CR): negligible agonist activity; EC50 (human 5-HT2CR; [4]): > 10000 nM; agonist activity at 5-HT2AR (in words) (human 5-HT2AR): negligible agonist activity; EC50 (human 5-HT2AR; 5-HT2AR EC50 (nM), Table 2, at least 3 independent experiments): > 10000 nM
5 | COc1cc(C2CCCNC2)c(OC)cc1C#N (centres unmarked) [Compound 10dis, 2,5-Dimethoxy-4-(piperidin-3-yl)benzonitrile] | ~ 5.0 | ~10000 nM | 5.66 ± 0.06 | 2200 nM |  |  | EC50 (human 5-HT2CR; [5]): ~10000 nM
6 | CCOc1cc(C(F)(F)F)c(OC)cc1C1CCCNC1.Cl (centres unmarked) [Compound 24dis, 3-(2-Ethoxy-5-methoxy-4-(trifluoromethyl)phenyl)piperidine Hydrochloride] | 5.56 ± 0.02 |  | 6.39 ± 0.08 |  | 77% | 77 ± 7% | EC50 (human 5-HT2CR; [4]): > 10000 nM; EC50 (human 5-HT2CR; [5]): 2700 nM; EC50 (human 5-HT2AR; [3]): 410 nM
7 | COc1cc(C2CCCNC2)ccc1C(F)(F)F.Cl (centres unmarked) [Compound 23eu, 3-(3-Methoxy-4-(trifluoromethyl)phenyl)piperidine Hydrochloride] |  |  | 5.74 ± 0.09 |  | 68% | 68 ± 7% | EC50 (human 5-HT2CR; [4]): > 10000 nM; EC50 (human 5-HT2AR; [3]): 1800 nM
8 | NCCc1c[nH]c2ccc(O)cc12 [Compound 5-HT, 5-hydroxytryptamine, reference compound] |  |  |  |  |  | 100% | 5-HT2AR Rmax (%) (human 5-HT2AR; Table 1): 100%
9 | COc1cc(C2CCCNC2)c(OC)cc1SC(C)C (centres unmarked) [Compound 17eu, 3-(4-(Isopropylthio)-2,5-dimethoxyphenyl)piperidine] |  |  | 6.81 ± 0.09 | 160 nM |  |  | EC50 (human 5-HT2CR; [6]): > 10000 nM
10 | COc1cc(C2CCCNC2)c(OC)cc1SC.Cl (centres unmarked) [Compound 15eu, 3-(2,5-Dimethoxy-4-(methylthio)phenyl)piperidine Hydrochloride] | 6.29 ± 0.06 | 510 nM | 7.59 ± 0.11 | 26 nM |  |  | 
11 | Br.COc1cc(C2CCNC2)c(OC)cc1Br (centres unmarked) [Compound 5eu, 3-(4-Bromo-2,5-dimethoxyphenyl)pyrrolidine Hydrobromide] | 7.59 ± 0.03 | 26 nM | 8.28 ± 0.07 | 5.3 nM |  | 57 ± 3% | Rmax at 5-HT2CR (human 5-HT2CR): 16%; 5-HT2CR Rmax (%) (human 5-HT2CR; Table 1): 73 ± 3%; 5-HT2CR Rmax ± S.E.M. (human 5-HT2CR; Table S2): 73 ± 3%; 5-HT2AR Rmax (%) (human 5-HT2AR; Table 1): 57 ± 3%
12 | COc1cc(C2CCCNC2)c(OC)cc1Cl (centres unmarked) [Compound 8dis, 3-(4-Chloro-2,5-dimethoxyphenyl)piperidine] | 5.75 ± 0.04 | 1800 nM | 6.16 ± 0.11 | 690 nM |  |  | 
13 | Br.COc1cc(C2CCNC2)c(OC)cc1Br (centres unmarked) [Compound 5dis, 3-(4-Bromo-2,5-dimethoxyphenyl)pyrrolidine Hydrobromide] | 7.75 ± 0.08 | 18 nM | 8.11 ± 0.08 | 7.7 nM |  | 39 ± 4% | Rmax at 5-HT2CR (human 5-HT2CR): 73%; 5-HT2CR Rmax (%) (human 5-HT2CR; Table 1): 16 ± 3%; 5-HT2CR Rmax ± S.E.M. (human 5-HT2CR; Table S2): 16 ± 3%; 5-HT2AR Rmax (%) (human 5-HT2AR; Table 1): 39 ± 4%
14 | COc1cc(C(F)(F)F)c(OC)cc1CCN [Compound 18, 2-(2,5-Dimethoxy-4-(trifluoromethyl)phenyl)ethan-1-amine Hydrochloride, reference compound] |  |  |  |  | 67% | 67 ± 5% | EC50 (human 5-HT2CR; 5-HT2CR pEC50 ± S.E.M., Table S2): 7.59 nM; 5-HT2CR Rmax (%) (human 5-HT2CR; Table 2): 71%; 5-HT2CR Rmax ± S.E.M. (human 5-HT2CR; Table S2): 71 ± 2%; EC50 (human 5-HT2AR; 5-HT2AR pEC50 ± S.E.M., Table S2): 0.724 nM; fold higher agonist potency at 5-HT2AR than at 5-HT2CR (selectivity) (human 5-HT2AR; 5-HT2AR vs 5-HT2CR): 10 fold
15 | CCOc1cc(C(F)(F)F)c(OCC)cc1C1CCCNC1.Cl (centres unmarked) [Compound 26eu, 3-(2,5-Diethoxy-4-(trifluoromethyl)phenyl)piperidine Hydrochloride] |  |  | 6.99 ± 0.07 |  | 47% | 47 ± 6% | EC50 (human 5-HT2CR; [4]): > 10000 nM; EC50 (human 5-HT2AR; [3]): 100 nM; fold drop in agonist potency (fold higher EC50) at 5-HT2AR (human 5-HT2AR): 30 fold
16 | CCCCc1cc(OC)c(C2CCCNC2)cc1OC.Cl (centres unmarked) [Compound 14dis, 3-(4-Butyl-2,5-dimethoxyphenyl)piperidine Hydrochloride] | 5.80 ± 0.07 | 1600 nM | 6.46 ± 0.05 | 340 nM |  |  | 
17 | COc1cc(C2CCCNC2)c(OC)cc1Br (centres unmarked) [Compound 6dis, 3-(4-Bromo-2,5-dimethoxyphenyl)piperidine] |  |  |  |  |  |  | EC50 (human 5-HT2CR; [6]): 1900 nM; EC50 (human 5-HT2AR; [7]): 370 nM
18 | COc1cc(C(F)(F)F)c(OC)cc1[C@H]1CCCN(C)C1 [(R)-19, (R)-3-(2,5-Dimethoxy-4-(trifluoromethyl)phenyl)-1-methylpiperidine] |  |  | 5.96 ± 0.09 |  | 53% | 53 ± 8% | EC50 (human 5-HT2CR; [4]): > 10000 nM
19 | COc1cc(C(F)(F)F)c(OC)cc1[C@H]1CCCNC1 [(R)-11, 3-(2,5-Dimethoxy-4-(trifluoromethyl)phenyl)piperidine Hydrochloride] | 6.07 ± 0.06 |  |  |  |  |  | 
20 | CCN1CCC[C@@H](c2cc(OC)c(C(F)(F)F)cc2OC)C1 [(S)-20, (S)-3-(2,5-Dimethoxy-4-(trifluoromethyl)phenyl)-1-ethylpiperidine] |  |  | 5.82 ± 0.08 |  | 44% | 44 ± 3% | EC50 (human 5-HT2CR; [4]): > 10000 nM
21 | CCCCc1cc(OC)c(C2CCCNC2)cc1OC.Cl (centres unmarked) [Compound 14eu, 3-(4-Butyl-2,5-dimethoxyphenyl)piperidine Hydrochloride] |  |  | 6.57 ± 0.06 | 270 nM |  |  | EC50 (human 5-HT2CR; [6]): > 10000 nM
22 | COc1ccc(OC)c(C2CCCNC2)c1 (centres unmarked) [Compound 7, 3-(2,5-Dimethoxyphenyl)piperidine] |  |  |  |  |  |  | EC50 (human 5-HT2CR; [6]): > 10000 nM; agonist activity at 5-HT2AR (in words) (human 5-HT2AR): very weak 5-HT2AR agonist activity; EC50 (human 5-HT2AR; [7]): > 10000 nM
23 | COc1cc(C2CCCNC2)c(OC)cc1C.Cl (centres unmarked) [Compound 12eu, 3-(2,5-Dimethoxy-4-methylphenyl)piperidine Hydrochloride] |  |  | 6.98 ± 0.10 | 100 nM |  |  | EC50 (human 5-HT2CR; [6]): > 10000 nM
24 | COc1cc(C2CCCNC2)c(OC)cc1SC(C)C (centres unmarked) [Compound 17dis, 3-(4-(Isopropylthio)-2,5-dimethoxyphenyl)piperidine] | 5.64 ± 0.05 | 2300 nM | 6.54 ± 0.09 | 290 nM |  |  | 
25 | COc1cc(C2CNC2)c(OC)cc1Br [Compound 4, 3-(4-Bromo-2,5-dimethoxyphenyl)azetidine Hydrochloride] | 8.24 ± 0.07 | 5.2 nM | 8.80 ± 0.10 | 1.6 nM |  | 97 ± 3% | 5-HT2CR Rmax ± S.E.M. (human 5-HT2CR; Table S2): 90 ± 3%; 5-HT2AR Rmax (%) (human 5-HT2AR; Table 1): 97 ± 3%
26 | COc1cc(C(F)(F)F)ccc1C1CCCNC1.Cl (centres unmarked) [Compound 22eu, 3-(2-Methoxy-4-(trifluoromethyl)phenyl)piperidine Hydrochloride] |  |  | 7.16 ± 0.05 |  | 68% | 68 ± 2% | EC50 (human 5-HT2CR; [4]): > 10000 nM; EC50 (human 5-HT2AR; [3]): 69 nM
27 | CCc1cc(OC)c(C2CCCNC2)cc1OC.Cl (centres unmarked) [Compound 13eu, 3-(4-Ethyl-2,5-dimethoxyphenyl)piperidine Hydrochloride] | 6.42 ± 0.12 | 380 nM | 7.39 ± 0.11 | 41 nM |  |  | agonist activity at 5-HT2CR (in words) (human 5-HT2CR): measurable agonist activity
28 | COc1cc(C2CCCNC2)ccc1C(F)(F)F.Cl (centres unmarked) [Compound 23, 3-(3-Methoxy-4-(trifluoromethyl)phenyl)piperidine Hydrochloride] |  |  |  |  |  |  | fold drop in agonist potency (fold higher EC50) at 5-HT2AR (human 5-HT2AR): more than 500 fold
29 | CCOc1cc(C2CCCNC2)c(OC)cc1C(F)(F)F.Cl (centres unmarked) [Compound 25dis, 3-(5-Ethoxy-2-methoxy-4-(trifluoromethyl)phenyl)piperidine Hydrochloride] |  |  | 6.50 ± 0.10 |  | 86% | 86 ± 6% | EC50 (human 5-HT2CR; [4]): > 10000 nM; EC50 (human 5-HT2AR; [3]): 320 nM
30 | COc1cc(C2CCCNC2)c(OC)cc1SC.Cl (centres unmarked) [Compound 15dis, 3-(2,5-Dimethoxy-4-(methylthio)phenyl)piperidine Hydrochloride] | 5.63 ± 0.03 | 2300 nM | 6.75 ± 0.06 | 180 nM |  |  | 
